The values that follow are results of earlier work, collected in paper PMC11387175, “Model informed dose regimen optimizing in development of leritrelvir for the treatment of mild or moderate COVID-19” (Frontiers in Pharmacology, 2024).

Read-outs that look alike come from different tables or passages of the source.

The data set relates to Delta variant. Further details: method as in Chen et al., 2023. The following applies: ref Chen et al., 2023, cited from earlier work.

Take `O=C(NC1CCCC1)C(=O)[C@H](C[C@@H]1CCNC1=O)NC(=O)[C@@H]1[C@H]2CCC[C@H]2CN1C(=O)[C@@H](NC(=O)C(F)(F)F)C1CCCCC1` [leritrelvir]: the lung pathology entry is “favorable enhancements” and the “viral titers in the lungs of mice after infection” value is “significantly reduced”. For the same compound, for the setting “300 mg/kg”, the inhibition rate is 42.86%. Further, the inhibition rate (600 mg/kg) is 100%.
